Measured values taken from patent US10538555B2, “Macrocyclic inhibitors of the PD-1/PD-L1 and CD80(B7-1)/PD-L1 protein/protein interactions” (BRISTOL-MYERS SQUIBB COMPANY, priority 2014, dated 2020).
Where a SMILES comes first, the peptide text is derived from it. Bridges are numbered along the chain shown (N, C = ends). [ ]: non-standard residue; d: D form. Phe(3,4,5-F3) = N[C@@H](Cc1cc(F)c(F)c(F)c1)C(=O)O; NMePhe(4-F) = CN[C@@H](Cc1ccc(F)cc1)C(=O)O; Phe(4-F) = N[C@@H](Cc1ccc(F)cc1)C(=O)O; NMeF = CN[C@@H](Cc1ccccc1)C(=O)O; dPip(4-aza) = O=C(O)[C@H]1CNCCN1; NMeNle = CCCC[C@H](NC)C(=O)O; hSer = N[C@@H](CCO)C(=O)O; Orn = NCCC[C@H](N)C(=O)O; Dab = NCC[C@H](N)C(=O)O

Molecular target: T1, Human PD-L1/PD-1 (Homo sapiens, UniProt Q9NZQ7)
T1 construct: TVMV protease cleavage site (C); made in house; host or cells: HEK293T cells
Assay: HTRF Human PD-L1/PD-1 binding assay (PD-1-Ig/PD-L1-His)
Settings: PD-L1-His 10 nM, PD-1-Ig 20 nM; class symbol; read-out: HTRF Human PD-L1/PD-1 Binding Assay IC50 Range
Method in brief: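 HTRF read-out (665/620 nm ratio) after 30 min equilibration with Eu-cryptate anti-Ig mAb (1 nM) and APC anti-His mAb (20 nM). Peptides preincubated 15 min with PD-L1-His (10 nM), then PD-1-Ig (20 nM) added for 15 min.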

T1 sequence (Q9NZQ7 with tags, fused parts or gaps): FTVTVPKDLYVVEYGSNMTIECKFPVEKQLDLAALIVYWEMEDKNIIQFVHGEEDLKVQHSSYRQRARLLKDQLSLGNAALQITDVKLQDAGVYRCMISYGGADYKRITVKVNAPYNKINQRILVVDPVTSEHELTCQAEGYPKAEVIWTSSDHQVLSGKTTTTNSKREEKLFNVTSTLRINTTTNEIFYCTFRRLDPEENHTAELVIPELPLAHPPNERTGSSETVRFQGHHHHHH

| SMILES | IC50 [nM] |
| --- | --- |
| CCCC[C@H]1C(=O)N2CCC[C@@H]2C(=O)N[C@@H](CC(=O)O)C(=O)N[C@@H](C(C)C)C(=O)N(C)[C@@H](Cc2ccccc2)C(=O)N[C@@H](Cc2ccc(O)cc2)C(=O)N2CCC[C@@H]2C(=O)N[C@@H](Cc2c[nH]c3ccccc23)C(=O)N[C@@H](Cc2ccc(O)cc2)C(=O)N[C@@H](CCO)C(=O)N[C@H](C(=O)NCC(N)=O)CSCC(=O)N[C@@H](Cc2cc(F)c(F)c(F)c2)C(=O)N(C)[C@@H](Cc2ccccc2)C(=O)N1C [Example 10095] ({CH2CO}-[Phe(3,4,5-F3)][NMeF][NMeNle][dP]DV[NMeF]Y[dP]WY[hSer]CG-NH2; thioether N-13) | 1 to 9.9 |
| CCCC[C@H]1C(=O)N2CCC[C@@H]2C(=O)N[C@@H](CC(=O)O)C(=O)N[C@@H](C(C)C)C(=O)N(C)[C@@H](Cc2ccccc2)C(=O)N[C@@H](Cc2ccc(O)cc2)C(=O)N2CCC[C@@H]2C(=O)N[C@@H](Cc2c[nH]c3ccccc23)C(=O)N[C@@H](Cc2ccc(O)cc2)C(=O)N[C@@H](CCCCN)C(=O)N[C@H](C(=O)NCC(N)=O)CSCC(=O)N[C@@H](Cc2cc(F)c(F)c(F)c2)C(=O)N(C)[C@@H](Cc2ccccc2)C(=O)N1C [Example 10096] ({CH2CO}-[Phe(3,4,5-F3)][NMeF][NMeNle][dP]DV[NMeF]Y[dP]WYKCG-NH2; thioether N-13) | 1 to 9.9 |
| CCCC[C@H]1C(=O)N2CCC[C@@H]2C(=O)N[C@@H](CC(=O)O)C(=O)N[C@@H](C(C)C)C(=O)N(C)[C@@H](Cc2ccccc2)C(=O)N[C@@H](Cc2ccc(O)cc2)C(=O)N2CCC[C@@H]2C(=O)N[C@@H](Cc2c[nH]c3ccccc23)C(=O)N[C@@H](Cc2ccc(O)cc2)C(=O)N[C@@H](CCC(=O)O)C(=O)N[C@H](C(=O)NCC(N)=O)CSCC(=O)N[C@@H](Cc2cc(F)c(F)c(F)c2)C(=O)N(C)[C@@H](Cc2ccccc2)C(=O)N1C [Example 10097] ({CH2CO}-[Phe(3,4,5-F3)][NMeF][NMeNle][dP]DV[NMeF]Y[dP]WYECG-NH2; thioether N-13) | 1 to 9.9 |
| CCCC[C@H]1C(=O)N2CCC[C@@H]2C(=O)N[C@@H](CC(=O)O)C(=O)N[C@@H](C(C)C)C(=O)N(C)[C@@H](Cc2ccccc2)C(=O)N[C@@H](Cc2ccc(O)cc2)C(=O)N2CCC[C@@H]2C(=O)N[C@@H](Cc2c[nH]c3ccccc23)C(=O)N[C@@H](Cc2ccc(O)cc2)C(=O)N[C@@H](CCCN)C(=O)N[C@H](C(=O)NCC(N)=O)CSCC(=O)N[C@@H](Cc2cc(F)c(F)c(F)c2)C(=O)N(C)[C@@H](Cc2ccccc2)C(=O)N1C [Example 10098] ({CH2CO}-[Phe(3,4,5-F3)][NMeF][NMeNle][dP]DV[NMeF]Y[dP]WY[Orn]CG-NH2; thioether N-13) | 1 to 9.9 |
| CCCC[C@H]1C(=O)N2CCC[C@@H]2C(=O)N[C@@H](CC(=O)O)C(=O)N[C@@H](C(C)C)C(=O)N(C)[C@@H](Cc2ccccc2)C(=O)N[C@@H](Cc2ccc(O)cc2)C(=O)N2CCC[C@@H]2C(=O)N[C@@H](Cc2c[nH]c3ccccc23)C(=O)N[C@@H](Cc2ccc(O)cc2)C(=O)N[C@@H](CC(=O)O)C(=O)N[C@H](C(=O)NCC(N)=O)CSCC(=O)N[C@@H](Cc2cc(F)c(F)c(F)c2)C(=O)N(C)[C@@H](Cc2ccccc2)C(=O)N1C [Example 10099] ({CH2CO}-[Phe(3,4,5-F3)][NMeF][NMeNle][dP]DV[NMeF]Y[dP]WYDCG-NH2; thioether N-13) | 1 to 9.9 |
| CCCC[C@H]1C(=O)N2CCC[C@@H]2C(=O)N[C@@H](CC(=O)O)C(=O)N[C@@H](C(C)C)C(=O)N(C)[C@@H](Cc2ccccc2)C(=O)N[C@@H](Cc2ccc(O)cc2)C(=O)N2CCNC[C@@H]2C(=O)N[C@@H](Cc2c[nH]c3ccccc23)C(=O)N[C@@H](Cc2ccc(O)cc2)C(=O)N[C@@H](CC(C)C)C(=O)N[C@H](C(=O)NCC(N)=O)CSCC(=O)N[C@@H](Cc2cc(F)c(F)c(F)c2)C(=O)N(C)[C@@H](Cc2ccccc2)C(=O)N1C [Example 10100] ({CH2CO}-[Phe(3,4,5-F3)][NMeF][NMeNle][dP]DV[NMeF]Y[dPip(4-aza)]WYLCG-NH2; thioether N-13) | 1 to 9.9 |
| CCCC[C@H]1C(=O)N2CCC[C@@H]2C(=O)N[C@@H](CC(=O)O)C(=O)N[C@@H](C(C)C)C(=O)N(C)[C@@H](Cc2ccccc2)C(=O)N[C@@H](CCCN)C(=O)N2CCC[C@@H]2C(=O)N[C@@H](Cc2c[nH]c3ccccc23)C(=O)N[C@@H](Cc2ccc(O)cc2)C(=O)N[C@@H](CC(C)C)C(=O)N[C@H](C(=O)NCC(N)=O)CSCC(=O)N[C@@H](Cc2ccc(F)cc2)C(=O)N(C)[C@@H](Cc2ccccc2)C(=O)N1C [Example 10102] ({CH2CO}-[Phe(4-F)][NMeF][NMeNle][dP]DV[NMeF][Orn][dP]WYLCG-NH2; thioether N-13) | 1 to 9.9 |
| CCCC[C@H]1C(=O)N2CCC[C@@H]2C(=O)N[C@@H](CC(=O)O)C(=O)N[C@@H](C(C)C)C(=O)N(C)[C@@H](Cc2ccccc2)C(=O)N[C@@H](CCCN)C(=O)N2CCC[C@@H]2C(=O)N[C@@H](Cc2c[nH]c3ccccc23)C(=O)N[C@@H](Cc2ccc(O)cc2)C(=O)N[C@@H](CC(C)C)C(=O)N[C@H](C(=O)NCC(N)=O)CSCC(=O)N[C@@H](Cc2ccccc2)C(=O)N(C)[C@@H](Cc2ccccc2)C(=O)N1C [Example 10103] ({CH2CO}-F[NMeF][NMeNle][dP]DV[NMeF][Orn][dP]WYLCG-NH2; thioether N-13) | 1 to 9.9 |
| CCCC[C@H]1C(=O)N2CCC[C@@H]2C(=O)N[C@@H](CC(=O)O)C(=O)N[C@@H](C(C)C)C(=O)N(C)[C@@H](Cc2ccccc2)C(=O)N[C@@H](CCCN)C(=O)N2CCC[C@@H]2C(=O)N[C@@H](Cc2c[nH]c3ccccc23)C(=O)N[C@@H](Cc2ccc(O)cc2)C(=O)N[C@@H](CC(C)C)C(=O)N[C@H](C(=O)NCC(N)=O)CSCC(=O)N[C@@H](Cc2cc(F)c(F)c(F)c2)C(=O)N(C)[C@@H](Cc2ccccc2)C(=O)N1C [Example 10104] ({CH2CO}-[Phe(3,4,5-F3)][NMeF][NMeNle][dP]DV[NMeF][Orn][dP]WYLCG-NH2; thioether N-13) | 1 to 9.9 |
| CCCC[C@H]1C(=O)N2CCC[C@@H]2C(=O)N[C@@H](CC(=O)O)C(=O)N[C@@H](C(C)C)C(=O)N(C)[C@@H](Cc2ccccc2)C(=O)N[C@@H](CCN)C(=O)N2CCC[C@@H]2C(=O)N[C@@H](Cc2c[nH]c3ccccc23)C(=O)N[C@@H](Cc2ccc(O)cc2)C(=O)N[C@@H](CC(C)C)C(=O)N[C@H](C(=O)NCC(N)=O)CSCC(=O)N[C@@H](Cc2ccc(F)cc2)C(=O)N(C)[C@@H](Cc2ccccc2)C(=O)N1C [Example 10105] ({CH2CO}-[Phe(4-F)][NMeF][NMeNle][dP]DV[NMeF][Dab][dP]WYLCG-NH2; thioether N-13) | 1 to 9.9 |
| CCCC[C@H]1C(=O)N2CCC[C@@H]2C(=O)N[C@@H](CC(=O)O)C(=O)N[C@@H](C(C)C)C(=O)N(C)[C@@H](Cc2ccccc2)C(=O)N[C@@H](CC(=O)O)C(=O)N2CCC[C@@H]2C(=O)N[C@@H](Cc2c[nH]c3ccccc23)C(=O)N[C@@H](Cc2ccc(O)cc2)C(=O)N[C@@H](CC(C)C)C(=O)N[C@H](C(=O)NCC(N)=O)CSCC(=O)N[C@@H](Cc2ccc(F)cc2)C(=O)N(C)[C@@H](Cc2ccccc2)C(=O)N1C [Example 10106] ({CH2CO}-[Phe(4-F)][NMeF][NMeNle][dP]DV[NMeF]D[dP]WYLCG-NH2; thioether N-13) | 1 to 9.9 |
| CCCC[C@H]1C(=O)N2CCC[C@@H]2C(=O)N[C@@H](CC(=O)O)C(=O)N[C@@H](C(C)C)C(=O)N(C)[C@@H](Cc2ccccc2)C(=O)N[C@@H](CCC(=O)O)C(=O)N2CCC[C@@H]2C(=O)N[C@@H](Cc2c[nH]c3ccccc23)C(=O)N[C@@H](Cc2ccc(O)cc2)C(=O)N[C@@H](CC(C)C)C(=O)N[C@H](C(=O)NCC(N)=O)CSCC(=O)N[C@@H](Cc2ccc(F)cc2)C(=O)N(C)[C@@H](Cc2ccccc2)C(=O)N1C [Example 10107] ({CH2CO}-[Phe(4-F)][NMeF][NMeNle][dP]DV[NMeF]E[dP]WYLCG-NH2; thioether N-13) | 1 to 9.9 |
| CCCC[C@H]1C(=O)N2CCC[C@@H]2C(=O)N[C@@H](CC(=O)O)C(=O)N[C@@H](C(C)C)C(=O)N(C)[C@@H](Cc2ccc(F)cc2)C(=O)N[C@@H](CCCN)C(=O)N2CCC[C@@H]2C(=O)N[C@@H](Cc2c[nH]c3ccccc23)C(=O)N[C@@H](Cc2ccc(O)cc2)C(=O)N[C@@H](CC(C)C)C(=O)N[C@H](C(=O)NCC(N)=O)CSCC(=O)N[C@@H](Cc2ccc(F)cc2)C(=O)N(C)[C@@H](Cc2ccccc2)C(=O)N1C [Example 10108] ({CH2CO}-[Phe(4-F)][NMeF][NMeNle][dP]DV[NMePhe(4-F)][Orn][dP]WYLCG-NH2; thioether N-13) | 1 to 9.9 |
| CCCC[C@H]1C(=O)N2CCC[C@@H]2C(=O)N[C@@H](CC(=O)O)C(=O)N[C@@H](C(C)C)C(=O)N(C)[C@@H](Cc2ccc(F)cc2)C(=O)N[C@@H](CCN)C(=O)N2CCC[C@@H]2C(=O)N[C@@H](Cc2c[nH]c3ccccc23)C(=O)N[C@@H](Cc2ccc(O)cc2)C(=O)N[C@@H](CC(C)C)C(=O)N[C@H](C(=O)NCC(N)=O)CSCC(=O)N[C@@H](Cc2ccc(F)cc2)C(=O)N(C)[C@@H](Cc2ccccc2)C(=O)N1C [Example 10109] ({CH2CO}-[Phe(4-F)][NMeF][NMeNle][dP]DV[NMePhe(4-F)][Dab][dP]WYLCG-NH2; thioether N-13) | 10 to 99.9 |
| CCCC[C@H]1C(=O)N2CCC[C@@H]2C(=O)N[C@@H](CC(=O)O)C(=O)N[C@@H](C(C)C)C(=O)N(C)[C@@H](Cc2ccc(F)cc2)C(=O)N[C@@H](CC(=O)O)C(=O)N2CCC[C@@H]2C(=O)N[C@@H](Cc2c[nH]c3ccccc23)C(=O)N[C@@H](Cc2ccc(O)cc2)C(=O)N[C@@H](CC(C)C)C(=O)N[C@H](C(=O)NCC(N)=O)CSCC(=O)N[C@@H](Cc2ccc(F)cc2)C(=O)N(C)[C@@H](Cc2ccccc2)C(=O)N1C [Example 10110] ({CH2CO}-[Phe(4-F)][NMeF][NMeNle][dP]DV[NMePhe(4-F)]D[dP]WYLCG-NH2; thioether N-13) | 1 to 9.9 |
